Test system: Diceraus melacanthus
Experiment: Field study in a wheat harvest area: attraction of stink bugs by pear ester versus regular pheromone, 24 hour period, six blocks
Type: in vivo
Conditions: for attraction rate (stink bugs attracted per treatment): wheat harvest area
Procedure: A study was conducted to evaluate the effectiveness of pear ester versus regular pheromone to attract sting bugs. In particular, a study was conducted in a wheat harvest area in an attempt to attract the stink bug, Diceraus melacanthus.

CCCCC/C=C\C=C\C(=O)OCC [Pear Ester, Ethyl-2E,4Z-decadienoate]
attraction rate compared with regular pheromone (24 hour period, six blocks, result in words): at least, the same as the regular pheromone | attraction rate (stink bugs attracted per treatment) (Block 1, 24 hour period): 3 | attraction rate (stink bugs attracted per treatment) (Block 2, 24 hour period): 1 | attraction rate (stink bugs attracted per treatment) (Block 3, 24 hour period): 0 | attraction rate (stink bugs attracted per treatment) (Block 4, 24 hour period): 0 | attraction rate (stink bugs attracted per treatment) (Block 5, 24 hour period): 3 | attraction rate (stink bugs attracted per treatment) (Block 6, 24 hour period): 1 | attraction rate, Mean (Mean of six blocks, 24 hour period): 1.33 | attraction rate, Sum (Sum of six blocks, 24 hour period): 8.00 | attractant effect on stink bugs (stink bugs, including Diceraus melacanthus, Nezara viridula, Piezodorus guildinii, Tibraca limbativentris, Chinavia spp, Edessa meditabunda, Euschistus heros, result in words): clearly has an attractant effect

Reference: US12082579B2, “Compositions and methods to manage hemiptera” (ISCA Technologies, Inc., priority 2021, dated 2024)
